Measured values: patent US11572369B2, “Bicyclic pyridine compositions and methods of using the same for cancer therapy” (UNIVERSITY OF SOUTH CAROLINA, priority 2019, dated 2023)

Experiments:
[1] = test system: NFκB activation in CDK8/19-deficient cells; experiment: NFκB reporter assay in CDK8/19 double-knockout 293 reporter cells; settings: CDK8/19 double-knockout reporter cells
BTK = target: T1, BTK (Homo sapiens, UniProt Q06187); experiment: KINOMEscan; type: binding; settings: 2000 nM
T1 construct: DNA label (for qPCR read-out); purchased KINOMEscan scanMAX panel (DiscoveRx)

PIK3CA(H1047L) = target: T2, PIK3CA(H1047L) (Homo sapiens, UniProt P42336, H1047L); experiment: KINOMEscan; type: binding; settings: 2000 nM
T2 construct: DNA label; purchased DiscoveRx (KINOMEscan scanMAX panel)
T2 sequence (P42336 whole entry H1047L): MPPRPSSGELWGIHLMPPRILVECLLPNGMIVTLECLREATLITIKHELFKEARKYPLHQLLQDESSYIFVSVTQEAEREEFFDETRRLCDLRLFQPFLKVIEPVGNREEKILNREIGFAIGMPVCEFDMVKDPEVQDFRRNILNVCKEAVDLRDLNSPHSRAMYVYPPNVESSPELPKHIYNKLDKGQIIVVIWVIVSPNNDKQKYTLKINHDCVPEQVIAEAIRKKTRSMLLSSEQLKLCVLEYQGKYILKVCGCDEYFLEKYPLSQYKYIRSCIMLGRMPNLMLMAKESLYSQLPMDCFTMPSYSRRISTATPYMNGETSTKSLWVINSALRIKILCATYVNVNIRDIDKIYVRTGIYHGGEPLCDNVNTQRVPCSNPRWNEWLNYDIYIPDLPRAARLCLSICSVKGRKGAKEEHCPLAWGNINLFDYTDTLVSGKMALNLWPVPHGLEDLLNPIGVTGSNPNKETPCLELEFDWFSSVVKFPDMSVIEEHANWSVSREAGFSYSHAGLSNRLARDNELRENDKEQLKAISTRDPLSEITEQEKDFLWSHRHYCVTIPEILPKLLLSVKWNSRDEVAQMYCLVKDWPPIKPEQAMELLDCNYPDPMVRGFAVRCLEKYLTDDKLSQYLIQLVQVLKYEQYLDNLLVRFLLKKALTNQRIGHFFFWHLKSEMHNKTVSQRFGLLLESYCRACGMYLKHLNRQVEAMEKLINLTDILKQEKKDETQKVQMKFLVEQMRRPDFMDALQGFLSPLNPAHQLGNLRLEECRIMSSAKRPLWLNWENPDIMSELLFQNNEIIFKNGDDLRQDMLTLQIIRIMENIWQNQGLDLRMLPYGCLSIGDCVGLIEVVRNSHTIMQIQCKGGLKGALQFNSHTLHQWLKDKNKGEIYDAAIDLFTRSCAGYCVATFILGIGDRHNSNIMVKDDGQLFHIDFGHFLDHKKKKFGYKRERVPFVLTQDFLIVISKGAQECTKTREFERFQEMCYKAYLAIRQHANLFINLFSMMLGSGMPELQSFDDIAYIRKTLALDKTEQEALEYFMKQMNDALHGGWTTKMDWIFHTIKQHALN

CDKL2 = target: T3, CDKL2 (Homo sapiens, UniProt Q92772); experiment: KINOMEscan; type: binding; settings: 2000 nM
T3 construct: DNA label (for qPCR read-out); purchased DiscoveRx (KINOMEscan scanMAX service)
T3 sequence (Q92772 whole entry): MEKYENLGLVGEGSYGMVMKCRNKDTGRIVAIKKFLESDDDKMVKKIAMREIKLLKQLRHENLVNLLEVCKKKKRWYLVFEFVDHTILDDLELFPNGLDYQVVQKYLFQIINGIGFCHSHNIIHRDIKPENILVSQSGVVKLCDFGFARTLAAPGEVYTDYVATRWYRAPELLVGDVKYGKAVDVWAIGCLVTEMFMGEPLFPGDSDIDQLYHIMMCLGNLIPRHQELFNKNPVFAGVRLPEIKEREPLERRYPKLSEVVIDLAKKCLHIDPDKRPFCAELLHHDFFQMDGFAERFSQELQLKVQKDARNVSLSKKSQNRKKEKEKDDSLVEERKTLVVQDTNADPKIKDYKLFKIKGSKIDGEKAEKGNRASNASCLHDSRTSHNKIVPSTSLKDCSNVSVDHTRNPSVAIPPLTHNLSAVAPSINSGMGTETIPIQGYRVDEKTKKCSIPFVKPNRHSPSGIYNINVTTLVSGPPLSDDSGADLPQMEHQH

PAK6 = target: T4, PAK6 (Homo sapiens, UniProt Q9NQU5); experiment: KINOMEscan; type: binding; settings: 2000 nM
T4 construct: purchased DiscoverX (KINOMEscan service)

GSK3B = target: T5, GSK3B (Homo sapiens, UniProt P49841); experiment: KINOMEscan; type: binding; settings: 2000 nM
T5 construct: DNA label (for qPCR read-out); purchased DiscoveRx (KINOMEscan scanMAX panel, contract assay)
T5 sequence (P49841 whole entry): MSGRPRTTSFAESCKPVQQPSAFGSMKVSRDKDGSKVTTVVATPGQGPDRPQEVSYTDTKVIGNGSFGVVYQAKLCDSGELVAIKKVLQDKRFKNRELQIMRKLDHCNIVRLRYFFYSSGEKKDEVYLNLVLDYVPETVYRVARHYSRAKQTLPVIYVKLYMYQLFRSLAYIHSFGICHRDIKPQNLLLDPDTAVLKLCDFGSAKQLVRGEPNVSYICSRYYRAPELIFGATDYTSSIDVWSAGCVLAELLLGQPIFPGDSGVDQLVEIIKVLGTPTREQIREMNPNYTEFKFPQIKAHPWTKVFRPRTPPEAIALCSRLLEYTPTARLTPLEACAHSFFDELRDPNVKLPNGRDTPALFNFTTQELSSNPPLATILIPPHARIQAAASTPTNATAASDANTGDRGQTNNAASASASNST

HUNK = target: T6, HUNK (Homo sapiens, UniProt P57058); experiment: KINOMEscan; type: binding; settings: 2000 nM
T6 construct: DNA label (qPCR read-out); purchased KINOMEscan (DiscoveRx) ScanMAX panel
T6 sequence (P57058 whole entry): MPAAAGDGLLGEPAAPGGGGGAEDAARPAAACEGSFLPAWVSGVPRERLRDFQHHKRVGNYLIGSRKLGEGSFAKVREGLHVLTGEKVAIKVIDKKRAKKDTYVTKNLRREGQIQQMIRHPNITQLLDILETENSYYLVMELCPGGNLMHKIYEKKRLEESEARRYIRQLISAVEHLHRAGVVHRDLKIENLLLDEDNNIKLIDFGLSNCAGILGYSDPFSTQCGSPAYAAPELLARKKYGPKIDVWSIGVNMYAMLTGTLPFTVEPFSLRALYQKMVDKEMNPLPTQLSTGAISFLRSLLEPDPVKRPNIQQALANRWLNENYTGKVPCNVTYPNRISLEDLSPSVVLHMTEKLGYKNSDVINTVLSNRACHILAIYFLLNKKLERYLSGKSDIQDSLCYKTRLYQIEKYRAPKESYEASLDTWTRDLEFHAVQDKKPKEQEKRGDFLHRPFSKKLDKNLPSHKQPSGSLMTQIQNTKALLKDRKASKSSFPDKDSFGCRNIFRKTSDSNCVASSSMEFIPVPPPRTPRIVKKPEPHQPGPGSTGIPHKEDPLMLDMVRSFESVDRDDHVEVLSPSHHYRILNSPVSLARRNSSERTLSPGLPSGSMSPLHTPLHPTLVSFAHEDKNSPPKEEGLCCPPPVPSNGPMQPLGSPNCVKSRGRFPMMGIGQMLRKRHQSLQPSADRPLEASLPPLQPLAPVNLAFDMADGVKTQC

FER = target: T7, FER (Homo sapiens, UniProt P16591); experiment: KINOMEscan; type: binding; settings: 2000 nM
T7 construct: DNA label (qPCR read-out); purchased DiscoveRx (KINOMEscan ScanMAX panel)
T7 sequence (P16591 whole entry): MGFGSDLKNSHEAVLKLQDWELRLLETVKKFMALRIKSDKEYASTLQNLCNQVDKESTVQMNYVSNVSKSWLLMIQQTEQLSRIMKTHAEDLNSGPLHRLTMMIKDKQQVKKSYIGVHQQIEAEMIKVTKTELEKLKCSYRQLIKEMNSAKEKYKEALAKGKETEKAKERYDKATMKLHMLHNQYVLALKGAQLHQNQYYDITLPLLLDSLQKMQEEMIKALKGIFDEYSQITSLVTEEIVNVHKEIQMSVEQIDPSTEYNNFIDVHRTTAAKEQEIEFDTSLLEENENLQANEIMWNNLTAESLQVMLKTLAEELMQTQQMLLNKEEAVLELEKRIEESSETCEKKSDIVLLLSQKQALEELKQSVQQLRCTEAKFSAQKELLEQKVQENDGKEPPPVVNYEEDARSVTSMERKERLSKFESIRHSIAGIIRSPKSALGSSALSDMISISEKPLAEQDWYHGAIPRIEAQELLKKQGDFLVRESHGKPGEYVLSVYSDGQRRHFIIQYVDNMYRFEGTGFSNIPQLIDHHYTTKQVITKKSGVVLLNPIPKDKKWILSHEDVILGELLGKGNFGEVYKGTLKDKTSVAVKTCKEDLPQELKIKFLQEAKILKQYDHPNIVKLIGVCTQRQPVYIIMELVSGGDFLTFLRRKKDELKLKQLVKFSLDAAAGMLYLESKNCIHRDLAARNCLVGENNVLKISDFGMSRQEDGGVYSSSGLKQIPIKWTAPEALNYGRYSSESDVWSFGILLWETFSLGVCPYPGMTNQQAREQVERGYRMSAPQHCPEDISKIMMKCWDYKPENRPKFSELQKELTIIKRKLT

[2] = Long-term MTD study, medicated diet, CD-1 mice; type: in vivo, mouse; settings: female CD-1 mice, 1000 ppm medicated diet, first week
Protocol: In another long-term MTD in vivo assay, groups of male and female CD-1 mice were fed regular diet (control) or 15u-medicated diet (500 ppm or 1000 ppm) for 4 or 5 weeks (FIG. 12B). The daily doses of 500 ppm and 1000 ppm groups were estimated to be about 50-100 mg/kg and 100-200 mg/kg, respectively, based on daily diet consumption.

[3] = test system: PSA expression in CRPC cell line C4-2; experiment: PSA expression in C4-2 cell culture supernatant; type: cell-based; settings: C4-2, 96 h, read-out: IC50, suppression of PSA expression
Text: CDK8/19 inhibition decreases the expression of certain androgen-receptor (AR) inducible genes including PSA, the most common marker of prostate cancer, and the growth of castration-refractory prostate cancers (CRPC).

MYC-CAP-CR cells = experiment: Short-term cell proliferation assay, MYC-CAP-CR; type: cell-based, murine; settings: androgen-containing media
[4] = test system: 4T1 murine triple-negative breast cancer; experiment: 4T1 TNBC lung metastasis survival after primary tumor removal; type: in vivo, mouse; settings: 25 mg/kg oral b.i.d. after removal of primary tumor
MYC-CaP-CR tumors = experiment: MYC-CaP-CR subcutaneous tumors in intact FVB male mice; type: in vivo, mouse; settings: intact (uncastrated) FVB male mice
MV4-11 cells = experiment: MV4-11-Luc proliferation assay; settings: Homo sapiens, MV4-11, read-out: Inhibition Potency MV4-11-Luc Assay
TAOK2 = target: T8, TAOK2 (Homo sapiens, UniProt Q9UL54); experiment: KINOMEscan; type: binding; settings: 2000 nM
T8 construct: DNA label (for qPCR read-out); purchased DiscoveRx (KINOMEscan scanMAX panel, contract assay)

MDA-MB-468 xenografts = MDA-MB-468 xenografts in NSG mice; type: in vivo, mouse; settings: 66 days
Protocol: To evaluate the effect of CDK8/19 inhibition on in vivo growth of MDA-MB-468 xenografts, 1 million cells with 40% Matrigel ([…] total volume) were injected s.c. into the right flanks of immunodeficient NSG female mice (9 weeks old). 11 days after inoculation, mice were randomized by tumor size into two groups (n=9), with the average tumor volume 115 mm^3 in each group.

Mouse PK, intravenous = type: in vivo; settings: female FVB mice, i.v. 0.5 mg/kg, mixture
Protocol: Pharmacokinetics (PK) Assay. To measure mouse pharmacokinetics (PK), thienopyridine derivatives were dissolved in 5% dextrose and administered to female FVB mice at different dosing conditions; blood samples were collected at different time points and compound concentrations in the serum were measured by LC/MS/MS.

[5] = test system: MDA-MB-468 triple-negative breast cancer (TNBC) cells; experiment: MDA-MB-468 long-term treatment in vitro; type: cell-based, Human
LIMK1 = target: T9, LIMK1 (Homo sapiens, UniProt P53667); experiment: KINOMEscan; type: binding; settings: 2000 nM
T9 construct: purchased KINOMEscan (DiscoveRx) panel service
T9 sequence (P53667 whole entry): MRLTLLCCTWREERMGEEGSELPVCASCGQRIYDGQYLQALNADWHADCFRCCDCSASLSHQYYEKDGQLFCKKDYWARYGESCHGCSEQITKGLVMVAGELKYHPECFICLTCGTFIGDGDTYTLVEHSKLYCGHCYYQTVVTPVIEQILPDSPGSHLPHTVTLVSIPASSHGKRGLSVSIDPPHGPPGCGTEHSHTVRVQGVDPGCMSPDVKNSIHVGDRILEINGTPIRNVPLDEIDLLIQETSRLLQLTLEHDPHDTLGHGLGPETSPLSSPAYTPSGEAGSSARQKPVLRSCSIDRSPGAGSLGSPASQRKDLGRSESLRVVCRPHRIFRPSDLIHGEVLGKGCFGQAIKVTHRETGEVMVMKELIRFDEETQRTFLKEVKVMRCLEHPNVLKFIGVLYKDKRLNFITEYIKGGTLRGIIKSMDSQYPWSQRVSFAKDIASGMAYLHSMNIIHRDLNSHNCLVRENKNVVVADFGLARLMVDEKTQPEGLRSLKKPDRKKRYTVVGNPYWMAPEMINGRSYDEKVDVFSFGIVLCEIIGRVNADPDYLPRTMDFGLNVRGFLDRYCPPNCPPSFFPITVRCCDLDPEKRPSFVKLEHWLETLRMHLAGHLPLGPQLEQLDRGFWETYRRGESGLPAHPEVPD

PRKD2 = target: T10, PRKD2 (Homo sapiens, UniProt Q9BZL6); experiment: KINOMEscan; type: binding; settings: 2000 nM
T10 construct: purchased DiscoveRx (KINOMEscan scanMAX panel)
T10 sequence (Q9BZL6 whole entry): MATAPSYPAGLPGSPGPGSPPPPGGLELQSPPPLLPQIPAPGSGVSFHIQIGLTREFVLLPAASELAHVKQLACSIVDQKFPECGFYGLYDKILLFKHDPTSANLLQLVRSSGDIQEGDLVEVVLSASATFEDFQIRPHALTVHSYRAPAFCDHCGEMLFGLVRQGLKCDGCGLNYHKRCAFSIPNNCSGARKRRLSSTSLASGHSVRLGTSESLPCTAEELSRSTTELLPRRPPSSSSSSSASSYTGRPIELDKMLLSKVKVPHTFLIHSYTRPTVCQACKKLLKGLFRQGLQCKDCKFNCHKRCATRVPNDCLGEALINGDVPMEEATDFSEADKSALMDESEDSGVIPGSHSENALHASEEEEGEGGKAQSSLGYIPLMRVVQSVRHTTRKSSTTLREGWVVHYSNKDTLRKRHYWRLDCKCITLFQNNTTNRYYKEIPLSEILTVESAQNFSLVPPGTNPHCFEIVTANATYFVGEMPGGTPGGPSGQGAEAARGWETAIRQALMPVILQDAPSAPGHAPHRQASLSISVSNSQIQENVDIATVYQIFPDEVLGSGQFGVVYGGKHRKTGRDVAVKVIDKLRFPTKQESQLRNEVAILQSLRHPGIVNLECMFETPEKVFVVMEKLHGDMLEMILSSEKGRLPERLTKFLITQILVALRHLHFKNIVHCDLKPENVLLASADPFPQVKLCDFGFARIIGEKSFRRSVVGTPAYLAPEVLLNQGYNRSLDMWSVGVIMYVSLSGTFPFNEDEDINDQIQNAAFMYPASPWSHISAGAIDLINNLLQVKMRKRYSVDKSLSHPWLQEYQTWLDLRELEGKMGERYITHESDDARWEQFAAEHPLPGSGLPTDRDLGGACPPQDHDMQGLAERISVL

[6] = test system: CRPC cell line 22rv1 xenograft; experiment: 22rv1 CRPC xenograft in castrated male nude mice; type: in vivo, mouse; settings: 50 mg/kg orally daily
Protocol: In another in vivo study, CRPC cell line 22rv1 was grown as a xenograft in castrated male nude mice.

[7] = Mouse oral PK of 15u/15w mixture at 30 mg/kg; settings: female CD1 mice, oral 30 mg/kg of each compound, latest timepoint 8 hrs
PIKFYVE = target: T11, PIKFYVE (Homo sapiens, UniProt Q9Y2I7); experiment: KINOMEscan; type: binding; settings: 2000 nM
T11 construct: DNA label; purchased DiscoveRx (KINOMEscan scanMAX panel)

RIPK2 = target: T12, RIPK2 (Homo sapiens, UniProt O43353); experiment: KINOMEscan; type: binding; settings: 2000 nM
T12 construct: DNA label (qPCR read-out); purchased DiscoveRx (KINOMEscan ScanMAX panel)

CDK8/19 = experiment: NFκB Activity Assay (NFκB luciferase reporter, parental 293 cells); type: cell-based; settings: read-out: Inhibition Potency HEK293-NFkB-Luc Assay
[8] = Oral PK in female CD-1 mice, solution formulation; settings: oral gavage in solution, 30 mg/kg (15u series) or 16/18 mg/kg (15w series)
[9] = medicated diet 250 ppm plus daily gavage 5 then 8 mg/kg

SMILES	% Ctrl (BTK) [% Ctrl]	% Ctrl (PIK3CA(H1047L)) [% Ctrl]	% Ctrl (CDKL2) [% Ctrl]	% Ctrl (PAK6) [% Ctrl]	% Ctrl (GSK3B) [% Ctrl]	% Ctrl (HUNK) [% Ctrl]	% Ctrl (FER) [% Ctrl]	% Ctrl (TAOK2) [% Ctrl]	% Ctrl (LIMK1) [% Ctrl]	% Ctrl (PRKD2) [% Ctrl]	% Ctrl (PIKFYVE) [% Ctrl]	% Ctrl (RIPK2) [% Ctrl]	other results
CN(C)C(=O)c1ccc(N2CCCN(c3ccnc4sc(C(N)=O)c(N)c34)CC2)cc1 [15u, 3-amino-4-(4-(4-(dimethylcarbamoyl)phenyl)-1,4-diazepan-1-yl)thieno[2,3-b]pyridine-2-carboxamide]	81	94	86	82	79	99	99	92	100	56	91	100	effect on NFκB activation in CDK8/19-deficient cells [1]: no effect; weight loss [2]: 5-10%; IC50 [3]: 27.6 nM; MYC-CAP-CR cell growth (MYC-CAP-CR cells): little effect; mouse survival of the metastatic disease [4]: significantly increased mouse survival; tumor volume and weight (MYC-CaP-CR tumors): modest effect; IC50 (MV4-11 cells): 30 nM; mouse body weights (MDA-MB-468 xenografts; long-term treatment): no detrimental effects; final tumor weights (MDA-MB-468 xenografts; [9]): significantly lower; tumor volume (MDA-MB-468 xenografts; [9]): significant reduction in tumor volume; Elimination rate (Mouse PK, intravenous): 4.03 h⁻¹; AUC (Mouse PK, intravenous; mouse, serum, iv): 92.1 ng·h/mL; C0 (Mouse PK, intravenous; mouse, serum, iv): 328 ng/mL; Vd (Mouse PK, intravenous; mouse, serum, iv): 1.52 L/kg; half-life (Mouse PK, intravenous; mouse, serum, iv): 10.2 min; response upon long-term treatment in vitro [5]: responsive; adverse effects and body weight [6]: no apparent adverse effects and no diminution of mouse body weight; xenograft tumor growth [6]: strongly suppressed the tumor growth; average serum concentration at 8 hrs as % of Cmax [7]: 64.4%
[2H]C([2H])([2H])N(C(=O)c1ccc(N2CCCN(c3ccnc4sc(C(N)=O)c(N)c34)CC2)cc1)C([2H])([2H])[2H] [15u_D6, 3-amino-4-(4-(4-(bis(methyl-d3)carbamoyl)phenyl)-1,4-diazepan-1-yl)thieno[2,3-b]pyridine-2-carboxamide]	77	80	96	99	77	100	100	93	100	90	98	93	IC50 (CDK8/19): 7.7 nM; PK (AUC 0-8 h) versus undeuterated parent [8]: slightly improved the PK
